“And” between values parts separate entries of the source, which are not always exact repeats. Identical values can stand only once.
What was measured:
CB CD34+CD38−lin− cells = experiment: 7 day culture of CB CD34+CD38−lin− cells with TSF with and without ATRA (immunophenotype, CFC, morphology); assay type: cell-based, human
Method: (§1) Primary human BM and CB CD34^+CD38^−lin^− cells were placed in culture with 20 ng/mL thrombopoietin, 100 ng/mL SCF, and flt-3 ligand (TSF), a cytokine combination previously found to induce human stem and progenitor cell proliferation and differentiation in vitro (Chute et al, Blood 105:576-583 (2005), Chute et al, Stem ells 22:202-215 (2004)). In order to assess whether inhibition of ALDH activity could block the differentiation of human HSCs induced to proliferate by TSF, 1-2×10^4 BM or CB CD34^+CD38^−lin^− cells were cultured×7 days with IMDM, 10% FBS and 1% pcn/strp supplemented with TSF with and without 100 μM DEAB. At day 7, the progeny of all cultures were collected, washed×2 and cell counts were performed. A minimum of n=5 experiments was performed per culture condition to allow statistical comparisons to be performed. Immunophenotypic analysis was performed on progeny cells using anti-human CD34 and CD38 mAbs (Becton Dickinson) and isotype control IgG mAbs and compared with day 0 (input) staining. Fourteen day methylcellulose CFC assays (colony forming unit-granulocyte monocyte, CFU-GM, burst forming unit-erythroid, BFU-E, and colony forming unit-mix, CFU-Mix) were performed as we have previously described (Chute et al, Blood 100:4433-4439 (2002), Chute et al, Blood 105:576-583 (2005), Chute et al, Stem ells 22:202-215 (2004)) to compare the number of lineage committed CFCs within day 0 CD34^+CD38^−lin^− cells and their progeny. Morphologic analysis of day 0 CD34^+CD38^−lin^− cells and their progeny following 7 day culture was performed using Wrights-Geimsa staining and microscopic analysis under oil immersion (100×).
In order to assess the hematopoietic effects of retinoid agonists on purified human HSCs, BM and CB CD34^+CD38^−lin^− cells were placed in culture with TSF with and without 1 μM all-trans retinoic acid (ATRA), an agonist of RAR. Total cell expansion, immunophenotype, CFC content and morphologic analysis was performed on ATRA-treated progeny and compared with both day 0 CD34^+CD38^−lin^− populations and the progeny of TSF alone to assess the impact of retinoid agonism on the differentiation of human HSCs.

BM CD34+CD38−lin− cells = experiment: Fourteen day methylcellulose CFC assay of culture progeny; assay type: cell-based, human; details: DEAB+TSF 7 days (TSF alone 5-fold increase vs input)
Method: (§2) Primary human BM and CB CD34^+CD38^−lin^− cells were placed in culture with 20 ng/mL thrombopoietin, 100 ng/mL SCF, and flt-3 ligand (TSF), a cytokine combination previously found to induce human stem and progenitor cell proliferation and differentiation in vitro (Chute et al, Blood 105:576-583 (2005), Chute et al, Stem ells 22:202-215 (2004)). In order to assess whether inhibition of ALDH activity could block the differentiation of human HSCs induced to proliferate by TSF, 1-2×10^4 BM or CB CD34^+CD38^−lin^− cells were cultured×7 days with IMDM, 10% FBS and 1% pcn/strp supplemented with TSF with and without 100 μM DEAB. At day 7, the progeny of all cultures were collected, washed×2 and cell counts were performed. A minimum of n=5 experiments was performed per culture condition to allow statistical comparisons to be performed. Immunophenotypic analysis was performed on progeny cells using anti-human CD34 and CD38 mAbs (Becton Dickinson) and isotype control IgG mAbs and compared with day 0 (input) staining. […]

[1] = system: CB CD34+CD38−lin− cells (SRCs); experiment: Long-term repopulating assay in NOD/SCID mice, CB cells (limiting dilution, SRC frequency); assay type: in vivo, human
Method: (§3) NOD/SCID mice (Schulz et al, J. Immunol. 154:180-191 (1995)) were transplanted with either day 0 FACS-sorted BM or CB CD34^+CD38^−lin− HSC-enriched cells or the progeny of CD34^+CD38^−lin− cells cultured with TSF alone or TSF supplemented with 100 μM DEAB. Cells were transplanted via tail vein injection after irradiating NOD/SCID mice with 300 cGy using an X-ray irradiator as previously described (Chute et al, Blood 100:4433-4439 (2002), Chute et al, Blood 105:576-583 (2005)). Day 0 CD34^+CD38^−lin− HSCs and their progeny were co-transplanted with 2×10^4 […] to facilitate engraftment as previously described (Bonnet et al, Bone Marrow Transpl. 23:203-209 (1999), Bhatia et al, Proc. Natl. Acad. Sci. USA 94:5320-5325 (1997)).
(§4) All mice in each group were sacrificed at week 8 and marrow samples were obtained by flushing their femurs with IMDM at 4° C. Red cells were lysed using red cell lysis buffer (Sigma-Aldrich) and flow cytometric analysis of human hematopoietic engraftment was performed as previously described using commercially available mAbs against human leukocyte differentiation antigens to identify engrafted human leukocytes and discriminate their hematopoietic lineages (Chute et al, Blood 100:4433-4439 (2002), Chute et al, Blood 105:576-583 (2005), Trischmann et al, J. Hematother. 2:305-313 (1993)).
(§5) Comparisons of data from in vitro experiments were made using the Student's t test. For purposes of the limiting dilution analysis, a transplanted mouse was scored as positively engrafted if ≧0.1% of the marrow cells expressed human-CD45 via high resolution FACS analysis. This criteria is consistent with previously published criteria for human cell repopulation in NOD/SCID mice (Chute et al, Blood 100:4433-4439 (2002), Dorrell et al, Blood 95:102-110 (2000)). SRC frequency in each cell source was calculated using the maximum likelihood estimator as described previously by Taswell (J. Immunol. 126:1614-1619 (1981), Wang et al, Blood 89:3919-3924 (1997), Ueda et al, J. Clin. Invest. 105:1013-1021 (2000)). Confidence intervals for the frequencies were calculated using the profile likelihood method, and the likelihood ratio test was used to confirm the fit of the model.

[2] = system: BM CD34+CD38−lin− cells (SRCs); experiment: Long-term repopulating assay in NOD/SCID mice, BM cells (SRC frequency); assay type: in vivo, human
Method: as §3, §4, §5

ALDH = ALDH activity by ALDEFLUOR staining of cultured CD34+CD38− cells; assay type: cell-based, human; details: 100 μM DEAB+TSF, 7 days, compared to day 0 or TSF alone, P=0.001
Method: as §2

Notch = experiment: Quantitative real-time PCR of Notch in cultured CB CD34+CD38−lin− cells; assay type: cell-based, human; details: DEAB+TSF
Method: (§6) Extraction of total RNA from Day 0 and Day 7 CB CD34^+ populations was done using a RNeasy Mini spin column (Qiagen, Valencia, Calif.) according to the manufacturer's recommended protocol. […] Briefly, total RNA was isolated from CD34^+CD38^−lin^− cells according to the manufacturer's instructions for the RNaqueous®-Micro (Ambion) and reversed-transcribed to cDNA using iScript™ cDNA synthesis Kit (Biorad, Hercules, Calif.). cDNA concentrations were measured with a fluorometer (Turner Designs, Sunnyvale, Calif.) using RiboGreen reagent (Invitrogen). PCR amplification reactions were performed in 13 μl and contained equal amounts of cDNAs, 6.5 μl of iQ SYBR green supermix (Bio-Rad), 0.2 μM of each forward and reverse gene-specific primers for genes of interest and the normalization gene 36B4. PCR was performed on an iCycler (Bio-Rad) according to the following cycling conditions: an initial cycle of 15 min at 95° C.; 45 cycles of 45 sec at 95° C., 15 sec at 55° C., and 15 sec at 72° C.; followed by a melt-curve analysis cycle with steps of 10 sec each at 0.5° C. increments from 60 to 95° C. Amplification rates were visualized and analyzed on ICYCLER IQ optical system software version 3.0 (Bio-Rad). Gene-specific primers were purchased from Integrated DNA Technologies (Coralville, Iowa).

HOXB4 = experiment: Quantitative real-time PCR of HOXB4 in cultured CB CD34+CD38−lin− cells; assay type: cell-based, human; details: DEAB added to TSF (TSF alone 5-fold decrease vs day 0)
Method: as §6

[3] = system: BM and CB CD34+CD38−lin− cells; experiment: 7 day culture of BM and CB CD34+CD38−lin− cells with TSF with and without DEAB (cell counts, immunophenotype, morphology); assay type: cell-based, human
Method: as §1

[4] = progeny of DEAB+TSF cultures, cell dose 0.5-1×10^3, 8 weeks

## CC1=C(/C=C/C(C)=C/C=C/C(C)=C/C(=O)O)C(C)(C)CCC1 [ATRA, all-trans retinoic acid]
CB CD34+CD38−lin− cells; 1 μM ATRA+100 μM DEAB+TSF
  HSC differentiation in presence of DEAB: HSC differentiation occurred
CB CD34+CD38−lin− cells; ATRA+TSF treated cultures
  number of CFCs compared to TSF alone: decreased
CB CD34+CD38−lin− cells; ATRA, by day 7
  differentiation and maturation of human HSCs: induced pronounced differentiation and myeloid maturation
CB CD34+CD38−lin− cells; TSF+1 μM ATRA, day 7
  CD34+CD38− cells remaining in culture: no CD34^+CD38^− cells remained
  percentage of CD34+ cells relative to TSF alone: declined

## CCN(CC)c1ccc(C=O)cc1 [DEAB]
BM CD34+CD38−lin− cells
  CFC content of progeny: little CFC content
[1]; DEAB+TSF versus day 0 cells or TSF alone
  fold increase in SRC frequency: 2 fold
[1]; mice transplanted with DEAB+TSF cultured cells, flow cytometry of BM
  multilineage differentiation in transplanted mice: extensive CD34^+ progenitor cell, CD19^+ B lymphoid and CD 33/13^+ myeloid differentiation
[1]; [4]
  fold higher levels of huCD45+ cell engraftment: 4 fold
  mean huCD45+ cell engraftment: 0.9%
[1]; progeny of DEAB+TSF cultures, cell dose 0.5-1×10^3, 9 of 17 mice (day 0 31%, TSF 18%)
  mice showing huCD45+ cell repopulation at 8 weeks: 53%
[1]; progeny of DEAB+TSF cultures, cell dose 2.5×10^3
  higher levels of huCD45+ cell engraftment versus day 0 or TSF: 1 log
[1]; progeny of DEAB+TSF cultures, cell dose 2.5×10^3, 8 weeks (day 0 0.9%, TSF 0.7%)
  mean huCD45+ cell engraftment: 8.0%
[2]; cell dose 1-2.5×10^3, TSF+DEAB progeny
  huCD45+ cell repopulation: no huCD45^+ cell repopulation was detected
[2]; progeny of 5×10^3 cells after DEAB+TSF culture
  transplanted mice with human repopulation (FIG. 4 legend): 50-80%
[2]; progeny of DEAB+TSF cultures, cell dose 5×10^3
  mean huCD45+ cell engraftment: 0.1%
[2]; progeny of DEAB+TSF cultures, cell dose 5×10^3, 3 of 6 mice (day 0 and TSF 0 of 5)
  mice showing huCD45+ cell engraftment: 50%
ALDH
  ALDH activity in CD34+CD38− cells: significantly reduced
Notch
  Notch transcription compared to TSF alone: did not alter
HOXB4
  HOXB4 expression relative to input levels: 80% and 70%
[3]; 100 μM DEAB+TSF, 7 days (TSF alone 5-fold decrease)
  absolute numbers of CD34+CD38− cells compared to day 0: maintenance
[3]; 100 μM DEAB+TSF, 7 days (TSF alone 15-fold)
  mean total cell expansion: 4 fold
[3]; BM and CB cells, DEAB+TSF 7 days, compared to TSF alone, P=0.01 and P=0.02
  percentages of primitive CD34+CD38− cells in progeny: significantly higher
[3]; DEAB+TSF cultures, Wrights-Giemsa staining, data not shown
  morphologic examination of progeny: predominance of cells with high nuclear:cytoplasmic ratios and prominent nucleoli
